From patent publication US12150975B2, “Therapeutic combinations to treat red blood cell disorders” (HARTIS-PHARMA SA, priority 2016, dated 2024)

What was measured:
Type in all cases: cell-based, human
[1] = test system: RBC from healthy subjects; assay: Reactive oxygen species (ROS) in RBC measured as Median Fluorescence Intensity by flow cytometry; settings: 20 min incubation
Description: Blood was collected from four healthy control subjects using citrate as anticoagulant. After low speed centrifugation, the RBC pellet was washed with isotonic phosphate buffered saline (PBS) and re-suspended in PBS (hematocrite 20%). The RBC were prepared as described in Example 7 and the effect of HDL with or without lutein on the oxidative stress status of RBC was determined using RBC from healthy subjects incubated for 20 min in presence of 100 μM HDL isolated from human plasma (Sigma ref L-1567) in presence or absence of 1 μM or 10 μM lutein (Bertin pharma ref. 1001081). Reactive oxygen species (ROS) were measured as Median Fluorescence Intensity (MFI) by flow cytometry similarly to Amer et al., 2003, Eur J Haematol, 70(2):84-90.

[2] = test system: RBC from healthy control; assay: RBC sensitivity to cholesterol depletion: hemolysis and membrane deformability by ektacytometry, healthy RBC; settings: 10 mM methyl-beta-cyclodextrine, 20 min at 37° C.
Description: (§1) Blood was collected from four healthy control subjects using citrate as anticoagulant. After low speed centrifugation, the RBC pellet was washed with isotonic phosphate buffered saline (PBS) and re-suspended in PBS (hematocrite 20%).
(§2) To confirm the difference in membrane cholesterol in RBC from SCD compared to healthy subjects, RBC's sensitivity to the cholesterol depleting agent methyl-beta-cyclodextrine was assessed. RBCs were incubated for 20 min at 37° C. in the presence of 2.5 mM or 10 mM methyl-beta-cyclodextrine (Sigma ref. C4555-5G) as described by Motayama et al., 2009, Biol. Pharm. Bull., 32(4) 700-705. RBC membrane deformability was assessed by ektacytometry (Mechatronics) as described by Renoux et al., 2016, Clin Hemorheol Microcirc., 62(2):173-9 at shear rate of 3 Pa and 30 Pa.

[3] = test system: RBC from SCD subjects; assay: RBC sensitivity to cholesterol depletion: hemolysis and membrane deformability by ektacytometry, SCD RBC; settings: 10 mM methyl-beta-cyclodextrine, 20 min at 37° C., RBC from 4 SCD subjects
Description: as §1, §2

Row | Molecule | decrease in ROS ([1]; 1 μM lutein) [%] | % change in ROS MFI vs control ([1]; Lutein 1 μM) [%] | mean MFI (ROS) ([1]; Lutein 1 μM) | % change in ROS MFI vs control ([1]; Lutein 10 μM) [%] | mean MFI (ROS) ([1]; Lutein 10 μM) | hemolysis [2] | RBC deformability ([2]; ektacytometry at 3 Pa and 30 Pa) | cholesterol depleting effect and resulting hemolysis [3]
1 | CC1=C[C@H](O)CC(C)(C)[C@H]1/C=C/C(C)=C/C=C/C(C)=C/C=C/C=C(C)/C=C/C=C(C)/C=C/C1=C(C)C[C@@H](O)CC1(C)C [Lutein, lutein] | 9.2 | −9.2 | 38.3 | −36.4 | 26.8 |  |  | 
2 | methyl-beta-cyclodextrine |  |  |  |  |  | marked hemolysis | significant decrease | resistant
